Tested on: NAP1L4
Experiment: IP-IB of HA-tagged
Assay type: binding
Details: HA-tagged (PR)12 mixed with HEK293 cell lysates containing increasing concentrations of 1,6-hexanediol

`OCCCCCCO` [1,6-hexanediol] was tested, and the “immunoprecipitated NAP1L4 signal with increasing 1,6-hexanediol” value was “faded accordingly”.

— publication PMC8438627 (The Journal of Cell Biology, 2021)
